Counter-ions that a name gives are not always drawn.

In general, IC50 refers to the concentration at which inhibition is half-maximal.

This assay deals with recombinant GST fusion MALT1 (human MALT1) (Homo sapiens (Human), UniProt Q9UDY8). The assay is described as follows: Evaluation of inhibition of protease activity of MALT1 (cleavage of fluorescent peptide substrate Ac-LRSR-AMC). Conditions: substrate Ac-LRSR-AMC 20 μmol/L, 30° C. for 80 minutes. Format: biochemical. The gist of the method: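 GST-tagged full-length human MALT1 from E. coli ([…]) was preincubated with compound 30 min at room temperature. Buffer: MES, 150 mM NaCl, 10% sucrose, 0.1% CHAPS, 10 mM DTT, 1 mol/L ammonium citrate. Ac-LRSR-AMC (20 μM final) was then cleaved 80 min at 30 °C; AMC fluorescence (Ex 380/Em 460) gain gave % inhibition versus no-enzyme and DMSO controls.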
recombinant GST fusion MALT1 (human MALT1), sequence (Q9UDY8 whole entry, the tested form may be a part): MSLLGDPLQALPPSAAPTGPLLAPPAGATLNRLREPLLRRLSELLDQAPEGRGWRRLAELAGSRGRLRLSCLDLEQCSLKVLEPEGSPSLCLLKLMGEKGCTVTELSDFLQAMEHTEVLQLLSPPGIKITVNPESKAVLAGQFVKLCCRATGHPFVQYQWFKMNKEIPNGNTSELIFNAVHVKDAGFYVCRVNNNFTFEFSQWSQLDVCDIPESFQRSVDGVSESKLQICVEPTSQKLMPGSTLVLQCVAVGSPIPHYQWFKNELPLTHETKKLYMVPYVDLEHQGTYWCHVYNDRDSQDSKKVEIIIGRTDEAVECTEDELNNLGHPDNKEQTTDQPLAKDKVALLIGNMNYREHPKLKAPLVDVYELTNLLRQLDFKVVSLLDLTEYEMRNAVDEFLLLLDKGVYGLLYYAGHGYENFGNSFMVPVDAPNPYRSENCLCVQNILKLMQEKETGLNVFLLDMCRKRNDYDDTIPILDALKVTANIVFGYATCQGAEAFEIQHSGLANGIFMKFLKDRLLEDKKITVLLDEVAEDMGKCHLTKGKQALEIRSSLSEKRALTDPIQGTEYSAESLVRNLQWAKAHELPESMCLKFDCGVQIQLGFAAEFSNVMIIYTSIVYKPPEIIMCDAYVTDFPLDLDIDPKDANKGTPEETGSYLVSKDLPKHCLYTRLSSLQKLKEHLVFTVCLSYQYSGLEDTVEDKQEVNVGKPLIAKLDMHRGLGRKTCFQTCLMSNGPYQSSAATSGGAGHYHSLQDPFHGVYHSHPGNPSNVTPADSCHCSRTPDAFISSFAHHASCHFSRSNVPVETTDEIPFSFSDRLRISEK
On to `CC(C)(C(=O)/N=C(\N)NCc1cnc(-c2ccc(Cl)cc2)c(-c2ccc(Cl)cc2)c1)c1ccccc1` [Compound of Example 86, N-(amino(((5,6-bis(4-chlorophenyl)pyridin-3-yl)methyl)amino)methylene)-2-methyl-2-phenylpropanamide], for which the IC50 amounted to 0.88 µM.

For the compound `N/C(=N\S(=O)(=O)c1ccccc1)NCc1cnc(-c2ccccc2)c(-c2ccc(C(F)(F)F)cc2)c1` [Compound of Example 92, N-(amino(((6-phenyl-5-(4-(trifluoromethyl)phenyl)pyridin-3-yl)methyl)amino)methylene)benzenesulfonamide], the IC50 came to 1.04 µM.

On to `Cn1cc(S(=O)(=O)/N=C(\N)NCc2cnc(-c3ccc(Cl)cc3)c(-c3ccc(Cl)cc3)c2)cn1` [Compound of Example 53, N-(amino(((5,6-bis(4-chlorophenyl)pyridin-3-yl)methyl)amino)methylene)-1-methyl-1H-pyrazole-4-sulfonamide], for which the IC50 came out at 2.01 µM.

As to `COc1ccc(-c2cc(CN/C(N)=N/S(=O)(=O)c3ccccc3)cnc2-c2ccc(Cl)cc2)cc1` [Compound of Example 18, N-(Amino(((6-(4-chlorophenyl)-5-(4-methoxyphenyl)pyridin-3-yl)methyl)amino)methylene)benzenesulfonamide], the IC50 stood at 0.024 µM.

With `N/C(=N\C(=O)C1CCCC1)NCc1cnc(-c2ccc(Cl)cc2)c(-c2ccc(Cl)cc2)c1` [Compound of Example 70, N-(amino(((5,6-bis(4-chlorophenyl)pyridin-3-yl)methyl)amino)methylene)cyclopentanecarboxamide], the IC50 was 0.341 µM.

In the case of `N/C(=N\S(=O)(=O)c1ccccc1)NCc1cnc(-c2ccc(Cl)cc2)c(-c2ccc(C(F)(F)F)cc2)c1` [Compound of Example 21, N-(Amino(((6-(4-chlorophenyl)-5-(4-(trifluoromethyl)phenyl)pyridin-3-yl)methyl)amino)methylene)benzenesulfonamide], the IC50 was 1.03 µM.

`CCOC(=O)/N=C(\N)NCc1cnc(-c2ccc(Cl)cc2)c(-c2ccc(Cl)cc2)c1` [Compound of Example 81, 1-((5,6-bis(4-chlorophenyl)pyridin-3-yl)methyl)-2-(ethoxycarbonyl)guanidine Hydrochloride]: the IC50 amounted to 0.534 µM.

On to `N/C(=N\S(=O)(=O)c1ccccc1)NCc1cnc(-c2ccc(F)cc2)c(-c2ccc(Cl)cc2)c1` [Compound of Example 8, N-(amino(((5-(4-chlorophenyl)-6-(4-fluorophenyl)pyridin-3-yl)methyl)amino)methylene)benzenesulfonamide], for which the IC50 came out at 1.29 µM.

Consider `N#Cc1ccc(-c2cc(CN/C(N)=N/S(=O)(=O)c3ccccc3)cnc2-c2ccc(Cl)cc2)cc1` [Compound of Example 19, N-(amino(((6-(4-chlorophenyl)-5-(4-cyanophenyl)pyridin-3-yl)methyl)amino)methylene)benzenesulfonamide], for which the IC50 is 1.52 µM.

`N/C(=N\C(=O)CC(F)(F)F)NCc1cnc(-c2ccc(Cl)cc2)c(-c2ccc(Cl)cc2)c1` [Compound of Example 84, N-(amino(((5,6-bis(4-chlorophenyl)pyridin-3-yl)methyl)amino)methylene)-3,3,3-trifluoropropanamide]: the IC50 came to 1.38 µM.

`N/C(=N\S(=O)(=O)c1cccc(O)c1)NCc1cnc(-c2ccc(Cl)cc2)c(-c2ccc(Cl)cc2)c1` [Compound of Example 96, N-(amino(((5,6-bis(4-chlorophenyl)pyridin-3-yl)methyl)amino)methylene)-3-hydroxybenzenesulfonamide Hydrochloride]: the IC50 was determined as 2.14 µM.

In the case of `N/C(=N\C(=O)Cc1ccccc1)NCc1cnc(-c2ccc(Cl)cc2)c(-c2ccc(Cl)cc2)c1` [Compound of Example 75, N-(amino(((5,6-bis(4-chlorophenyl)pyridin-3-yl)methyl)amino)methylene)-2-phenylacetamide], the IC50 was 0.353 µM.

For `Cc1ccc(-c2ncc(CN/C(N)=N/S(=O)(=O)c3ccccc3)cc2-c2ccc(C(F)(F)F)cc2)cc1` [Compound of Example 25, N-(amino(((6-(4-methylphenyl)-5-(4-(trifluoromethyl)phenyl)pyridin-3-yl)methyl)amino)methylene)benzenesulfonamide hydrochloride], the IC50 turned out to be 1.84 µM.

Consider `N/C(=N\S(=O)(=O)c1cccc(Cl)c1)NCc1cnc(-c2ccc(Cl)cc2)c(-c2ccc(Cl)cc2)c1` [Compound of Example 48, N-(amino(((5,6-bis(4-chlorophenyl)pyridin-3-yl)methyl)amino)methylene)-3-chlorobenzenesulfonamide], for which the IC50 is 0.333 µM.

Consider `N/C(=N\S(=O)(=O)c1ccccc1)NCc1cnc(-c2ccc(C(F)(F)F)cc2)c(-c2ccccc2)c1` [Compound of Example 93, N-(amino(((5-phenyl-6-(4-(trifluoromethyl)phenyl)pyridin-3-yl)methyl)amino)methylene)benzenesulfonamide], for which the IC50 is 1.07 µM.

For `Cc1ccc(-c2ncc(CN/C(N)=N/S(=O)(=O)c3ccccc3)cc2-c2ccc(Cl)cc2)cc1F` [Compound of Example 12, N-(amino(((5-(4-chlorophenyl)-6-(3-fluoro-4-methylphenyl)pyridin-3-yl)methyl)amino)methylene)benzenesulfonamide], the half-inhibitory concentration (IC50) was determined as 0.338 µM.

In the case of `N/C(=N\S(=O)(=O)C1CCCCC1)NCc1cnc(-c2ccc(Cl)cc2)c(-c2ccc(Cl)cc2)c1` [Compound of Example 56, N-(amino(((5,6-bis(4-chlorophenyl)pyridin-3-yl)methyl)amino)methylene)cyclohexanesulfonamide], the IC50 was found to be 0.429 µM.
